# How the values were obtained:
# absence seizure = assay: mouse absence seizure models (γ-butyrolactone induced, SSADH null, stargazer, C3H/He); assay type: in vivo; conditions: mice models (a)-(d)
# [1] = test system: primary generalised tonic clonic seizure (PGTCS); assay: randomised double-blind placebo controlled trial of adjunctive treatment in PGTCS; assay type: in vivo; conditions: human patients, adjunct or monotherapy
# Description: Clinical trial study: A randomised double-blind, placebo controlled, trial assesses the efficacy and safety of adjunctive eslicarbazepine acetate in primary generalised tonic clonic seizure (PGTCS) in human patients in accordance with established methods. Methods: Men and women are selected for trial according to standard inclusion criteria in the field including the following: • Subject is male or female and aged 6-65 years. • Subject has ≧3 PGTCS over the two months before screening and during the eight weeks Baseline Period with at least one seizure in each one month period. […] Trial endpoints assessed clinical criteria are as follows: • time to withdrawal after randomisation; • time to first, second, or other seizure after randomisation (time to first seizure after randomisation allows determination of the proportion of patients at different time points who remain seizure free); • time to achieving remission (e.g. at six months, one year, or two years); • change in seizure severity; • change in seizure frequency; • percentage response to treatment (response defined as a 50% or greater reduction in seizure frequency); • change in seizure-free interval; • change in seizure duration; • change in seizure pattern; • change in functional capacity; and • patient-related quality of life.
smiles,measurement,setting,value
"CC(=O)O[C@H]1Cc2ccccc2N(C(N)=O)c2ccccc21 [eslicarbazepine acetate, (S)-10-acetoxy-10,11-dihydro-5H-dibenz[b,f]azepine-5-carboxamide]",controlling seizures in mouse absence seizure models,absence seizure,effective in controlling seizures
same,clinical effects in patients suffering from or susceptible to PGTCS,[1],improved clinical effects

# Reference: patent US9750747B2, “Treatments involving eslicarbazepine acetate or eslicarbazepine” (BAIL-PORTELA & CA, S.A., priority 2011, dated 2017)
